In one data set the target is MOR (Homo sapiens, UniProt P35372). Briefly: cell-based. On the set-up: expressed in transfected cells; host or cells: CHO-K1/MOR/Ga15 cells. The following applies: for EC50: read-out: FLIPR Ca2+ EC50; for FLIPR Ca2+ AUC: area under the [Ca2+]i fluorescence response curve, up to 90 s. As for the experimental part: In an exemplary in vitro assay for identifying MOR agonists, cells that express a MOR are treated with a test compound in a cellular calcium fluorescent assay and calcium fluorescence intensity is then measured to determine whether the MOR is activated. A test compound is identified as a MOR agonist if the MOR is activated.
MOR, sequence (P35372 whole entry): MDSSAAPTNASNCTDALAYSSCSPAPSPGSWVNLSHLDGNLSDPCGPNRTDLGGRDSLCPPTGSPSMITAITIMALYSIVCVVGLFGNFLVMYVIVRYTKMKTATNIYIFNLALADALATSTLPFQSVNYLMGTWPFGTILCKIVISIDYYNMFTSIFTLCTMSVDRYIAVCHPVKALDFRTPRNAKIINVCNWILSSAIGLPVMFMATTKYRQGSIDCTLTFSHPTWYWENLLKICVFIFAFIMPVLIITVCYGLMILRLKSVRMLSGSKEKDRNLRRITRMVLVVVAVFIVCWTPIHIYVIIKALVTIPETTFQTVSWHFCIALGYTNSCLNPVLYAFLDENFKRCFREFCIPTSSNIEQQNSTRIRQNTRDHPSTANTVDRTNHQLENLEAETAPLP
EC50 herein refers to the concentration of a compound that induces a response halfway between the baseline and the maximum after a specified exposure time. AUC refers to the area under the response curve, an indication of the compound's capability of activating a MOR.
One day before the assay, CORNING® black with clear flat bottom 96-well assay plates were coated with a 0.1 mg/mL Poly-L-Lysine solution. CHO-K1/MOR/Ga15 cells were suspended in the F12 medium and plated at a density of about 8×10^4 cells/well in […] medium. Cells were incubated in a humidified atmosphere of 10% CO2 at 37° C. overnight so as to reach an 80-90% confluent cell monolayer before the assay. On the day of the assay, 150 μL medium/well was removed from plate. […] Compounds and other reagents were dissolved in the assay buffer. […] The [Ca^2+]i fluorescence was measured up to 90 s after agonist injection.

The subject of data set [1] is wild-type C57BL/6 (B6) mice. Briefly: Tail flick test (acute thermal pain). The class given is in vivo, mouse. The following applies: equi-antinociceptive doses, B6 mice. A general note: Thermal pain tests record how soon the animal reacts.
The test system of data set [2] is B6 mice. Briefly: Cardiovascular function test (tail cuff plethysmography). The settings on record: acute, equi-antinociceptive doses.
The next data set deals with mice. Briefly: Conditioned place preference (CPP) test, reinstatement of morphine CPP. The following applies: challenge on reinstatement day (Day 21).
Data set [3] deals with B6 mice. Briefly: Respiratory function test. The settings on record: acute, equi-antinociceptive doses.
In another data set the target is T1, human mu-opioid receptor (Homo sapiens, UniProt P35372).
T1 construct: expressed in transfected cells; host or cells: HEK-293 (HEK-MOR), kept under G418
T1 sequence (P35372 whole entry): as above
In words: cell-based. In kind it is cell-based. As for the experimental part:
Cells (72,000 per well) were plated in 100 μl/well of DMEM in 96-well solid-bottom white plates (GIBCO) and 50 μl/well of drug in HBSS in the presence of forskolin and 3-isobutyl-1-methylxanthine at final concentrations of 1 μM and 500 μM, respectively. After 30 min of incubation at room temperature, the concentration of cyclic adenosine monophosphate was determined using a LANCE Ultra cAMP Assay kit (PerkinElmer).
As MOR belongs to the GPCR family, activation of MOR leads to a decrease in intracellular cAMP level.

Like-named read-outs stand apart in the source and are kept apart here.

Turning to `CCC1CCC(C(=O)NCC2NCCc3ccccc32)CC1` (centres unmarked) [Compound 40, 4-Ethyl-N-(1,2,3,4-tetrahydro-1-isoquinolinylmethyl)cyclohexanecarboxamide], on MOR (CHO-K1/MOR/Ga15 cells), the EC50 (commonly the concentration at which the effect is half-maximal) was found to be 1120 nM. Further, the “FLIPR Ca2+ AUC” value on MOR amounted to 10059.
With `CC1CCCCC1C(=O)NCC1NCCc2ccccc21` (centres unmarked) [Compound 41, 2-Methyl-N-(1,2,3,4-tetrahydro-1-isoquinolinylmethyl)cyclohexanecarboxamide], the EC50 at MOR (CHO-K1/MOR/Ga15 cells) came out at 10000 nM. Further, the “FLIPR Ca2+ AUC” value on MOR is reported as 5627.
With `COC1CCC(C(=O)NCC2NCCc3ccccc32)CC1` (centres unmarked) [Compound 42, 4-Methoxy-N-(1,2,3,4-tetrahydro-1-isoquinolinylmethyl)cyclohexanecarboxamide], the EC50 on MOR (CHO-K1/MOR/Ga15 cells) was found to be 6600 nM. Besides, on MOR, the “FLIPR Ca2+ AUC” value was 5538.
As for `O=C(NCC1NCCc2ccccc21)C1CCCC1` (centres unmarked) [Compound 43, N-(1,2,3,4-Tetrahydro-1-isoquinolinylmethyl)cyclopentanecarboxamide], the EC50 on MOR (CHO-K1/MOR/Ga15 cells) was 8910 nM. Moreover, the “FLIPR Ca2+ AUC” value on MOR is on record as 5768.
Take `O=C(NCC1NCCc2ccccc21)C1CCC1` (centres unmarked) [Compound 44, N-(1,2,3,4-Tetrahydro-1-isoquinolinylmethyl)cyclobutanecarboxamide]: at MOR (CHO-K1/MOR/Ga15 cells), the EC50 turned out to be 6800 nM. For the same molecule, the “FLIPR Ca2+ AUC” value on MOR is recorded as 3646.
On to `O=C(NCC1NCCc2ccccc21)c1ccccc1` (centres unmarked) [Compound 45, N-(1,2,3,4-Tetrahydro-1-isoquinolinylmethyl)benzamide], for which, on MOR (CHO-K1/MOR/Ga15 cells), the EC50 turned out to be 750 nM. Besides, the “FLIPR Ca2+ AUC” value on MOR was 8628.
Regarding `COc1ccc(C(=O)NCC2NCCc3ccccc32)cc1` (centres unmarked) [Compound 46, 4-Methoxy-N-(1,2,3,4-tetrahydro-1-isoquinolinylmethyl)benzamide], the concentration giving a half-maximal response (EC50) on MOR came to 370 nM.
As to `O=C(NCC1NCCc2ccccc21)c1ccc(OC(F)(F)F)cc1` (centres unmarked) [Compound 47, N-(1,2,3,4-Tetrahydro-1-isoquinolinylmethyl)-4-(trifluoromethoxy)benzamide], the EC50 on MOR turned out to be 370 nM.
Regarding `O=C(NCC1NCCc2ccccc21)c1ccc(F)cc1` (centres unmarked) [Compound 48, 4-Fluoro-N-(1,2,3,4-tetrahydro-1-isoquinolinylmethyl)benzamide], the EC50 on MOR is 540 nM.
On the same count and under the same terms, under `O=C(NCC1NCCc2ccccc21)c1ccc(Cl)cc1` (centres unmarked) [Compound 49, 4-Chloro-N-(1,2,3,4-tetrahydro-1-isoquinolinylmethyl)benzamide] stands 230 nM.
On the same count and under the same terms, the value for `CCc1ccc(C(=O)NCC2NCCc3ccccc32)cc1` (centres unmarked) [Compound 50, 4-Ethyl-N-(1,2,3,4-tetrahydro-1-isoquinolinylmethyl)benzamide] was 60 nM.
As to `COc1cccc(C(=O)NCC2NCCc3ccccc32)c1` (centres unmarked) [Compound 51, 3-Methoxy-N-(1,2,3,4-tetrahydro-1-isoquinolinylmethyl)benzamide], the EC50 at MOR (CHO-K1/MOR/Ga15 cells) worked out at 860 nM. Besides, the “FLIPR Ca2+ AUC” value on MOR is listed as 13302.
For the molecule `O=C(NCC1NCCc2ccccc21)c1cccc(F)c1` (centres unmarked) [Compound 52, 3-Fluoro-N-(1,2,3,4-tetrahydro-1-isoquinolinylmethyl)benzamide], the EC50 on MOR (CHO-K1/MOR/Ga15 cells) is 780 nM. Also, on MOR, the “FLIPR Ca2+ AUC” value is 11425.
The matching figures for `O=C(NCC1NCCc2ccccc21)c1cccc(Cl)c1` (centres unmarked) [Compound 53, 3-Chloro-N-(1,2,3,4-tetrahydro-1-isoquinolinylmethyl)benzamide]: 380 nM and 13149.
In the case of `Cc1cccc(C(=O)NCC2NCCc3ccccc32)c1` (centres unmarked) [Compound 54, 3-Methyl-N-(1,2,3,4-tetrahydro-1-isoquinolinylmethyl)benzamide], the EC50 on MOR turned out to be 370 nM.
For the molecule `COc1ccccc1C(=O)NCC1NCCc2ccccc21` (centres unmarked) [Compound 55, 2-Methoxy-N-(1,2,3,4-tetrahydro-1-isoquinolinylmethyl)benzamide], the EC50 on MOR (CHO-K1/MOR/Ga15 cells) came to 3310 nM. For the same molecule, the “FLIPR Ca2+ AUC” value on MOR was determined as 4312.
Regarding `O=C(NCC1NCCc2ccccc21)c1ccccc1OC(F)(F)F` (centres unmarked) [Compound 56, N-(1,2,3,4-Tetrahydro-1-isoquinolinylmethyl)-2-(trifluoromethoxy)benzamide], on MOR (CHO-K1/MOR/Ga15 cells), the EC50 came out at 3310 nM. In addition, the “FLIPR Ca2+ AUC” value on MOR is 7855.
With `O=C(NCC1NCCc2ccccc21)c1ccccc1F` (centres unmarked) [Compound 57, 2-Fluoro-N-(1,2,3,4-tetrahydro-1-isoquinolinylmethyl)benzamide], on MOR (CHO-K1/MOR/Ga15 cells), the EC50 was 3280 nM. The “FLIPR Ca2+ AUC” value at MOR came to 12102.
With `Cc1ccc(C(=O)NCC2NCCc3ccccc32)cc1C` (centres unmarked) [Compound 58, 3,4-Dimethyl-N-(1,2,3,4-tetrahydro-1-isoquinolinylmethyl)benzamide], at MOR, the EC50 is 120 nM.
Consider `O=C(NCC1NCCc2ccccc21)c1ccc(Cl)c(Cl)c1` (centres unmarked) [Compound 59, 3,4-Dichloro-N-(1,2,3,4-tetrahydro-1-isoquinolinylmethyl)benzamide], for which the EC50 at MOR stood at 250 nM.
With `Cc1ccc(C(=O)NCC2NCCc3ccccc32)c(C)c1` (centres unmarked) [Compound 60, 2,4-Dimethyl-N-(1,2,3,4-tetrahydro-1-isoquinolinylmethyl)benzamide], the EC50 at MOR (CHO-K1/MOR/Ga15 cells) came to 660 nM. Further, at MOR, the “FLIPR Ca2+ AUC” value is recorded as 13375.
With `Cc1ccc(C(=O)NCC2c3ccccc3CCN2C)cc1` (centres unmarked) [Compound 61, 4-Methyl-N-[(2-methyl-1,2,3,4-tetrahydro-1-isoquinolinyl)methyl]benzamide], on MOR (CHO-K1/MOR/Ga15 cells), the EC50 is 40 nM. For the same molecule, on MOR, the “FLIPR Ca2+ AUC” value was 14757.
Take `CCCCN1CCc2ccccc2C1CNC(=O)c1ccc(C)cc1` (centres unmarked) [Compound 62, N-[(2-Butyl-1,2,3,4-tetrahydro-1-isoquinolinyl)methyl]-4-methylbenzamide]: at MOR (CHO-K1/MOR/Ga15 cells), the EC50 amounted to 160 nM. Moreover, the “FLIPR Ca2+ AUC” value at MOR was 14669.
For `Cc1ccc(C(=O)NCC2c3ccccc3CCN2CC(C)C)cc1` (centres unmarked) [Compound 63, 4-Methyl-N-{[2-(2-methylpropyl)-1,2,3,4-tetrahydro-1-isoquinolinyl]methyl}benzamide], the concentration giving a half-maximal response (EC50) on MOR (CHO-K1/MOR/Ga15 cells) was determined as 110 nM. The “FLIPR Ca2+ AUC” value on MOR turned out to be 18418.
With `Cc1ccc(C(=O)NCC2c3ccccc3CCN2CCCl)cc1` (centres unmarked) [Compound 64, N-{[2-(2-Chloroethyl)-1,2,3,4-tetrahydro-1-isoquinolinyl]methyl}-4-methylbenzamide], the EC50 on MOR (CHO-K1/MOR/Ga15 cells) was 30 nM.
For the molecule `CCc1ccc(C(=O)NCC2c3ccccc3CCN2C)cc1` (centres unmarked) [Compound 65, 4-Ethyl-N-[(2-methyl-1,2,3,4-tetrahydro-1-isoquinolinyl)methyl]benzamide], the EC50 on MOR (CHO-K1/MOR/Ga15 cells) was 10 nM. Moreover, the “FLIPR Ca2+ AUC” value at MOR came to 18367.
As for `Cc1ccc(C(=O)NCC2c3ccccc3CCN2C)cc1C` (centres unmarked) [Compound 66, 3,4-Dimethyl-N-[(2-methyl-1,2,3,4-tetrahydro-1-isoquinolinyl)methyl]benzamide], the EC50 on MOR (CHO-K1/MOR/Ga15 cells) was found to be 10 nM. Moreover, the “FLIPR Ca2+ AUC” value at MOR came to 17393.
With `CN1CC[C@]23c4c5ccc(O)c4O[C@H]2[C@@H](O)C=C[C@H]3[C@H]1C5.Cl` [morphine, Morphine hydrochloride, reference compound], in data set [1], the “time at which analgesic effects were exerted after acute injection” value worked out at 20 min. In the data set on B6 mice [2], the blood pressure entry was “non-significant effect on blood pressure”, the “heart rate (pulse)” value is “reduced from 10 to 30 min” and the rate-pressure product entry is given as “reduced from 10 to 20 min”. The “reinstatement of morphine CPP” value in the data set on mice is “induced reinstatement of morphine CPP”. For the same molecule, the “respiratory amplitude (tidal volume)” value in the data set with B6 mice [3] was “significantly reduced respiratory amplitude (tidal volume) at 10 to 20 min”. In addition, in the data set with B6 mice [3] (10-60 min), the respiratory frequency result is “marked respiratory depression at 10 min and keep falling of respiratory frequency going through 60 min”.
For the molecule “[Met5]enkephalin [Met-5, reference compound]”, the cAMP production result on human mu-opioid receptor is listed as “significantly decreased cAMP production”.
